Data taken from patent US20230159510A1, “NOVEL PRMT5 INHIBITORS” (AMGEN INC., priority 2020, published 2023).
Where two headings read alike, the source gives them in different places.

Experiments:
HCT116 MTAP null cells = assay: HCT116 proliferation assay, MTAP null cells (CellTiter-Glo, 6 days); format: cell-based; settings: read-out: Protif_ HCT116-MTAP null IC50
Outline: (§1)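 Both lines grow in RPMI 1640 containing 10% fetal bovine serum. After an overnight rest, they receive compound at up to 1 or 10 µM in threefold serial dilutions, with vehicle wells holding DMSO only.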

HCT116 WT cells = assay: HCT116 proliferation assay, WT cells (CellTiter-Glo, 6 days); format: cell-based; settings: read-out: Prolif_HCT116-WT IC50
Outline: as §1

PRMT5/MEP50 = PRMT5/MEP50 (Homo sapiens, UniProt O14744); assay: MTase-Glo methyl transferase assay, Method B (FL-Histone H2A, 1 µM MTA, 1 h pre-incubation); format: biochemical; design: purchased Reaction Biology Corp RD-11-292; settings: read-out: PRMT5 MTase Glo Ki (nM, Meth. B)
Outline: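 PRMT5/MEP50 (4 nM) was pre-incubated 1 h with compound, 5 µM SAM and 1 µM MTA, then started with 2.5 µM FL-Histone H2A in Tris pH 8.0 buffer. After 20 h at room temperature, SAH was detected by MTase-Glo luminescence, and IC50/KI were fitted from dose-response curves.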

PRMT5/MEP50, sequence (O14744 2-637 limits assumed): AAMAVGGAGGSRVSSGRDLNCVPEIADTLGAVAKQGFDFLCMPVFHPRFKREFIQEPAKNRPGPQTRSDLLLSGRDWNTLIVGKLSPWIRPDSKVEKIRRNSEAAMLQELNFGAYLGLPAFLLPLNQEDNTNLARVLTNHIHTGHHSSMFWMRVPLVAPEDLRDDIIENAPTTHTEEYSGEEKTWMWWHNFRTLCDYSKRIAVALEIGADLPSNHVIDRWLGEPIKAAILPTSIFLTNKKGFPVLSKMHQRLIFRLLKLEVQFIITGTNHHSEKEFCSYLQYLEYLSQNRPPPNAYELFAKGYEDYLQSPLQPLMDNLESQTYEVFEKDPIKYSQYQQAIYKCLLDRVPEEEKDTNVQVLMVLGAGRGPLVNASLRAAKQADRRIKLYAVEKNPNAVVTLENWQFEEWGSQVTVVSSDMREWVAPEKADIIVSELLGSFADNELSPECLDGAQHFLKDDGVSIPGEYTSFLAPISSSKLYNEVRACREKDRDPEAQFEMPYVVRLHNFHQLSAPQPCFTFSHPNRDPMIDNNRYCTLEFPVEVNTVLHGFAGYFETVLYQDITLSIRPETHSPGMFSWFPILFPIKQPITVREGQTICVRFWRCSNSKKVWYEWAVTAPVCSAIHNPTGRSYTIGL
PRMT5/MEP50, sequence (Q9BQA1 2-342 partner limits assumed): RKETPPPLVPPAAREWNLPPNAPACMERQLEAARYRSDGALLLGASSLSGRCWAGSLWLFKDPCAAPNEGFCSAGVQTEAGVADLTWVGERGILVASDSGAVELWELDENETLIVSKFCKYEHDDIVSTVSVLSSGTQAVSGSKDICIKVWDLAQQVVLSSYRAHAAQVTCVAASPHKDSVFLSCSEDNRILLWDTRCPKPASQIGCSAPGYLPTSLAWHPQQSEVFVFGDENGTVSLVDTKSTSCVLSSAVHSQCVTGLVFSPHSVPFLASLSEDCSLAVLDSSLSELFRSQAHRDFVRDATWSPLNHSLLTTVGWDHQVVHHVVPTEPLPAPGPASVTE

Row | SMILES | IC50 (HCT116 MTAP null cells; HCT116-MTAP null, 144 h) [nM] | IC50 (HCT116 WT cells; Homo sapiens, HCT-116, 144 h) [nM] | Ki (PRMT5/MEP50) [nM] | IC50 (HCT116 MTAP null cells) [nM] | IC50 (HCT116 WT cells) [nM]
1 | Cc1cc2cc(C(=O)N(Cc3ccc(C(F)(F)F)cn3)C3CCc4sc(Cl)cc43)ccc2nc1N (stereo not drawn) [Example 607, 2-amino-N-(2-chloro-5,6-dihydro-4H-cyclopenta[b]thiophen-4-yl)-3-methyl-N-((5-(trifluoromethyl)pyridin-2-yl)methyl)quinoline-6-carboxamide] | 370 | > 3200 | 7.26 | – | –
2 | Cc1cc2cc(C(=O)N(Cc3ccc(C(F)(F)F)cn3)C3COc4ccccc43)ccc2nc1N (stereo not drawn) [Example 608, 2-amino-N-(2,3-dihydrobenzofuran-3-yl)-3-methyl-N-((5-(trifluoromethyl)pyridin-2-yl)methyl)quinoline-6-carboxamide] | 400 | > 1000 | 5.26 | – | –
3 | Cc1cc2cc(C(=O)N(Cc3ccc(C(F)(F)F)cn3)[C@@H]3c4ccccc4C[C@H]3O)ccc2nc1N [Example 609, 2-amino-N-((1R,2R)-2-hydroxy-2,3-dihydro-1H-inden-1-yl)-3-methyl-N-((5-(trifluoromethyl)pyridin-2-yl)methyl)quinoline-6-carboxamide] | 540 | > 1000 | 26.8 | – | –
4 | Cc1cc2cc(C(=O)N(Cc3ccc(C(F)(F)F)cn3)C3COc4c3ccc(C)c4C)ccc2nc1N (stereo not drawn) [Example 610, 2-amino-N-(6,7-dimethyl-2,3-dihydrobenzofuran-3-yl)-3-methyl-N-((5-(trifluoromethyl)pyridin-2-yl)methyl)quinoline-6-carboxamide] | 540 | > 1000 | 9.6 | – | –
5 | COC(CN(Cc1ccc(C(F)(F)F)cn1)C(=O)c1ccc2nc(N)c(C)cc2c1)C(F)(F)F (stereo not drawn) [Example 611, 2-amino-3-methyl-N-(3,3,3-trifluoro-2-methoxypropyl)-N-((5-(trifluoromethyl)pyridin-2-yl)methyl)quinoline-6-carboxamide] | 70 | > 1000 | 3 to 7 | – | –
6 | Cc1cc2cc(C(=O)N(Cc3ccc(C(F)(F)F)cn3)C3CCCC(O)C3)ccc2nc1N (stereo not drawn) [Example 612, 2-amino-N-(3-hydroxycyclohexyl)-3-methyl-N-((5-(trifluoromethyl)pyridin-2-yl)methyl)quinoline-6-carboxamide] | 340 | > 1000 | 7.56 | – | –
7 | COC(CN(Cc1ccc(C(F)(F)F)cn1)C(=O)c1ccc2nc(N)c(C)cc2c1)C(C)C (stereo not drawn) [Example 613, 2-amino-N-(2-methoxy-3-methylbutyl)-3-methyl-N-((5-(trifluoromethyl)pyridin-2-yl)methyl)quinoline-6-carboxamide] | 269 | 3900 | 4.35 | – | –
8 | Cc1cc2cc(C(=O)N(Cc3ccc(C(F)(F)F)cn3)CC3CCn4ccnc4C3)ccc2nc1N (stereo not drawn) [Example 614, 2-amino-3-methyl-N-((5,6,7,8-tetrahydroimidazo [1,2-a]pyridin-7-yl)methyl)-N-((5-(trifluoromethyl)pyridin-2-yl)methyl)quinoline-6-carboxamide] | 950 | > 1000 | 9.42 | – | –
9 | Cc1cc2cc(C(=O)N(Cc3ccc(C(F)(F)F)cn3)CC3CCc4[nH]cnc4C3)ccc2nc1N (stereo not drawn) [Example 617, 2-amino-3-methyl-N-((4,5,6,7-tetrahydro-1H-benzo[d]imidazol-5-yl)methyl)-N-((5-(trifluoromethyl)pyridin-2-yl)methyl)quinoline-6-carboxamide] | 286 | > 1000 | 1.72 | – | –
10 | Cc1ccc2c(c1)C(N(Cc1ccc(C(F)(F)F)cn1)C(=O)c1ccc3nc(N)c(C)cc3c1)CC2 (stereo not drawn) [Example 624, 2-amino-3-methyl-N-(6-methyl-2,3-dihydro-1H-inden-1-yl)-N-((5-(trifluoromethyl)pyridin-2-yl)methyl)quinoline-6-carboxamide] | 187 | > 1000 | 5.19 | – | –
11 | Cc1cc2cc(C(=O)N(Cc3ccc(C(F)(F)F)cn3)C3CCc4c(O)cccc43)ccc2nc1N (stereo not drawn) [Example 628, 2-amino-N-(4-hydroxy-2,3-dihydro-1H-inden-1-yl)-3-methyl-N-((5-(trifluoromethyl)pyridin-2-yl)methyl)quinoline-6-carboxamide] | 53 | 440 | 3 to 4 | – | –
12 | Cc1cc2cc(C(=O)N(Cc3ccc(C(F)(F)F)cn3)C3CCc4nc(N)ncc4C3)ccc2nc1N (stereo not drawn) [Example 668, 2-amino-N-(2-amino-5,6,7,8-tetrahydroquinazolin-6-yl)-3-methyl-N-[ [5-(trifluoromethyl)-2-pyridyl]methyl] quinoline-6-carboxamide] | 270 | > 1000 | 4.69 | – | –
13 | Cc1cc2cc(C(=O)N(Cc3ccc(C(F)(F)F)cn3)C3CCc4[nH]ncc4C3)ccc2nc1N (stereo not drawn) [Example 672, 2-amino-3-methyl-N-(4,5,6,7-tetrahydro-1H-mdazol-5-yl)-N-[[5-(trifluoromethyl)-2-pyridyl]methyl] quinoline-6-carboxamide] | 404 | > 1000 | 5.56 | – | –
14 | Cc1cc2cc(C(=O)N(Cc3ccc(C(F)(F)F)cn3)C[C@H]3CC[C@H](O)CC3)ccc2nc1N [Example 676, 2-amino-N-[(4-hydroxycyclohexyl)methyl]-3-methyl-N-[[5-(trifluoromethyl)-2-pyridyl]methyl] quinoline-6-carboxamide] | 255 | > 1000 | 3.88 | – | –
15 | Cc1cc2cc(C(=O)N(Cc3ccc(C(F)(F)F)cn3)CC3CCOCC3)ccc2nc1N [Example 683, 2-amino-3-methyl-N-(tetrahydropyran-4-ylmethyl)-N-[[5-(trifluoromethyl)-2-pyridyl]methyl] quinoline-6-carboxamide] | 297 | > 1000 | 4.29 | – | –
16 | Cc1cc2cc(C(=O)N(Cc3ccc(C(F)(F)F)cn3)Cc3ccnc4[nH]ccc34)ncc2nc1N [Example 684, 2-amino-3-methyl-N-(1H-pyrrolo[2,3-b]pyridin-4-ylmethyl)-N-[[5-(trifluoromethyl)-2-pyridyl]methyl]-1,7-naphthyridine-6-carboxamide] | 114 | > 1000 | 2.29 | – | –

Other lines, results leading:

Row | IC50 (HCT116 MTAP null cells; HCT116-MTAP null, 144 h) [nM] | IC50 (HCT116 WT cells; Homo sapiens, HCT-116, 144 h) [nM] | Ki (PRMT5/MEP50) [nM] | IC50 (HCT116 MTAP null cells) [nM] | IC50 (HCT116 WT cells) [nM] | SMILES
17 | 276 | 3500 | 1.62 | – | – | Cc1cc2cc(C(=O)N(Cc3ccc(C(F)(F)F)cn3)Cc3ccc4cc[nH]c4n3)ccc2nc1N [Example 615, N-((1H-pyrrolo [2,3-b]pyridin-6-yl)methyl)-2-amino-3-methyl-N-((5-(trifluoromethyl)pyridin-2-yl)methyl)quinoline-6-carboxamide]
18 | 320 | > 1000 | 3.29 | – | – | Cc1cc2cc(C(=O)N(Cc3ccc4[nH]c(N)nc4c3)Cc3ccc(C(F)(F)F)cn3)ccc2nc1N [Example 616, 2-amino-N-((2-amino-1H-benzo [d]imidazol-5-yl)methyl)-3-methyl-N-((5-(trifluoromethyl)pyridin-2-yl)methyl)quinoline-6-carboxamide]
19 | – | – | 1.59 | 55 | 1400 | Cc1cc2cc(C(=O)N(Cc3ccc4[nH]ncc4c3)Cc3ccc(C(F)(F)F)cn3)ccc2nc1N [Example 618, N-((1H-indazol-5-yl)methyl)-2-amino-3-methyl-N-((5-(trifluoromethyl)pyridin-2-yl)methyl)quinoline-6-carboxamide]
20 | 128 | 1300 | 1.87 | – | – | Cc1cc2cc(C(=O)N(Cc3ccc4cn[nH]c4c3)Cc3ccc(C(F)(F)F)cn3)ccc2nc1N [Example 619, N-((1H-indazol-6-yl)methyl)-2-amino-3-methyl-N-((5-(trifluoromethyl)pyridin-2-yl)methyl)quinoline-6-carboxamide]
21 | 100 | > 1000 | 1.83 | – | – | Cc1cc2cc(C(=O)N(Cc3ccc4[nH]c(=O)oc4c3)Cc3ccc(C(F)(F)F)cn3)ccc2nc1N [Example 620, 2-amino-3-methyl-N-((2-oxo-2,3-dihydrobenzo [d]oxazol-6-yl)methyl)-N-((5-(trifluoromethyl)pyridin-2-yl)methyl)quinoline-6-carboxamide]
22 | 133 | > 1000 | 3.97 | – | – | Cc1cc2cc(C(=O)N(Cc3ccn4ccnc4c3)Cc3ccc(C(F)(F)F)cn3)ccc2nc1N [Example 621, 2-amino-N-(imidazo[1,2-a]pyridin-7-ylmethyl)-3-methyl-N-((5-(trifluoromethyl)pyridin-2-yl)methyl)quinoline-6-carboxamide]
23 | 130 | > 1000 | 1.98 | – | – | Cc1cc2cc(C(=O)N(Cc3ccc4ccoc4c3)Cc3ccc(C(F)(F)F)cn3)ccc2nc1N [Example 622, 2-amino-N-(benzofuran-6-ylmethyl)-3-methyl-N-((5-(trifluoromethyl)pyridin-2-yl)methyl)quinoline-6-carboxamide]
24 | 56 | 900 | 3.14 | – | – | Cc1cc2cc(C(=O)N(Cc3ccc4[nH]ccc4c3)Cc3ccc(C(F)(F)F)cn3)ccc2nc1N [Example 623, N-((1H-indol-5-yl)methyl)-2-amino-3-methyl-N-((5-(trifluoromethyl)pyridin-2-yl)methyl)quinoline-6-carboxamide]
25 | 157 | 7700 | 1.76 | – | – | Cc1cc2cc(C(=O)N(Cc3ccc(CC(N)=O)cc3)Cc3ccc(C(F)(F)F)cn3)ccc2nc1N [Example 680, 2-amino-N-[ [4-(2-amino-2-oxoethyl)phenyl]methyl]-3-methyl-N-[[5-(trifluoromethyl)-2-pyridyl]methyl] quinoline-6-carboxamide]
